Results taken from patent US20250073234A1, “COMBINATION THERAPIES INCLUDING PARP1 INHIBITORS” (Cornell University, priority 2022, published 2025).
Entries after “also recorded” stand apart in the source; their conditions may differ.

Experiments:
[1] = test system: p62 (SQSTM1) in WPMY-1 cells; experiment: p62/SQSTM1 expression in WPMY-1 stromal fibroblasts (immunoblot, qPCR); format: cell-based, human
From the text: To knock out PARP-1 in WPMY-1 cells, single-guide RNA sequences targeting PARP-1 exon2 were purchased from Synthego and transduced into WPMY-1 cells with recombinant Streptococcus pyogenes Cas9 protein (Truecut Cas9 Protein v2, Thermo), using the Neon Transfection System 1 (Invitrogen) following the manufacturer's protocol and single clones were expanded and screened by protein immunoblotting. To perform AP1-A binding site editing in the SQSTM promoter in WPMY-1 cells, single-guide RNA sequences targeting the human AP1-A binding site (Synthego) was transduced into cells with a Cas9 protein and a single-stranded donor oligonucleotide (ssODN, IDT) using Neon Electroporation System. Single clones were expanded and screened for AP1-A editing by Sanger sequencing. A point mutation to disrupt the API enhancer element in the p62 promoter was introduced by Site Directed Mutagenesis (Stratagene). Knockdown of MCT1, MCT4, FOS, PARP1, PARP2, CD38, ATG5, and SIRT1-7 genes in WPMY-1 cells were achieved by siRNA transfection using Lipofectamine RNAiMAX Transfection Reagent (Invitrogen). Transient overexpression was achieved by transfection using X-tremeGENE HP transfection reagent (Roche). Transfected cells were examined 48 hours after transfection. Establishing stably GFP or RFP expressing cells was achieved by lentivirus-mediated transduction. Lentivirus were produced in HEK293T cells using X-tremeGENE HP transfection reagent (Roche). Virus-containing supernatants were collected 48, 72 and 96 hours after transfection, filtered to eliminate cells, and supplemented with 8 μg/ml polybrene. Cells were infected with three rounds of viral supernatants and selected with puromycin (3 μg/ml). For autophagy or proteasome inhibition, WPMY-1 cells were treated for 12 hours with 100 nM bafilomycin Al or 12 hours with 20 μM of MG132, respectively, or vehicle (DMSO). […] For MCT1 inhibition, WPMY-1 cells were treated for 48 hours with 10 μM of AZD3965. For cJUN inhibition, WPMY-1 cells were treated for 48 hours with 10 μM of SP600125. For calpains and caspases inhibition, WPMY-1 cells were treated for 48 hours with 1-20 μM of Calpeptin (Tocris) or z-VAD-FMK (Tocris), respectively. For protein synthesis inhibition, WPMY-1 cells were treated with 50 μg/ml of cycloheximide (Sigma). Conditioned media (CM) was generated by collecting supernatant on day 3. CM was transferred to a 15 ml BD Falcon tube and centrifuged at 1300 rpm for 10 minutes. The supernatant was sterile filtered using a […] (Millex-GV) with a 10 ml syringe barrel. The samples were stored at […] for future experiments. Fractionation of the CM was achieved using Amicon Ultra centrifugal filters (3KUltracel, Millipore). The supernatant was centrifuged at 4000 rpm for 1 hour. The supernatant fraction that was >3 kDa remained above the filter and that which was <3 kDa passed through to the lower chamber. The >3-kDa fraction was resuspended in DMEM to the pre-filtration volume.

PC3 cells = experiment: Click-iT EdU proliferation of PC3 cells treated with CM from WPMY-1 cells; format: cell-based, human; conditions: Olaparib 10 μM + PEGPH20 2.5 μg/ml or CM incubation with Galunisertib 10 μM
Description: WPMY-1 cells were cultured in DMEN containing 10% FBS (basal conditions) or 10% charcoal stripped FBS (ADT conditions), then the cells were treated with vehicle (DMSO), Olaparib 10 μM, Olaparib 10 μM+PEGPH20 2.5 μg/ml for 96 hours, refreshing media and stimuli at 48 hours, conditioned media (CM) was generated by collecting supernatant on day 4. PC3 cells were seeded in a black-walled well (Thermo Fisher) and serum starved overnight. CM from WPMY-1 cells was added to PC3 for 24 h. PC3 were exposed to EdU incorporation for the last 2 hours. Proliferating cells were detected using Click-iT EdU Alexa fluor 488 (Thermo Fisher) following the manufacturer's instructions. Pictures were taken using EVOS M5000 Imaging System and EdU positive were measured using Fiji (Schindelin et al., 2012).

[2] = test system: human ovarian cancer PDXs; conditions: Niraparib vs vehicle, GSE163854
From the text: (§1) For RNA-Seq, sequencing Fastq files were uploaded to BaseSpace and processed with RNASeq Alignment App (Illumina) to obtain raw reads counts for each gene. For 3′RNA-Seq, read data was processed with the BlueBee Genomics Platform (BlueBee, San Mateo, CA). GenePattern (https://genepattern.broadinstitute.org/gp/pages/index.jsf) was used to collapse gene matrix files (CollapseDataset module) or to assess the statistical significance of differential gene expression (ComparativeMarkerSelection module for microarray data and DESeq2 module for RNA-seq data). […] For ATACSeq, FASTQ files from ATAC-seq reads were aligned to UCSC mm10 with Bowtie2 (bowtie2-very-sensitive-x mm10-1 FILE_merged_R1.fastq-2 FILE_merged_R2.fastq-X 1000-p 12 | samtools view-u-| samtools sort->FILE.bam). […] For motif enrichment analysis in the differential peaks between vehicle and Olaparib-treated cells, p-values were calculated using findMotifsGenome.pl with—size given,—len 6,8,10,12 and—mask program of HOMER v4.10.3. […] For ATACSeq, FASTQ files from ATAC-seq reads were aligned to UCSC mm10 with Bowtie2 (bowtie2-very-sensitive-x mm10-1 FILE_merged_R1.fastq-2 FILE_merged_R2.fastq-X 1000-p 12 | samtools view-u-I samtools sort->FILE.bam). […] For scRNA-seq, raw sequence reads were quality-checked using FastQC software. […]

WPMY-1 cells = experiment: qPCR of CAF / stromal activation markers in WPMY-1 cells; format: cell-based, human; conditions: co-treatment with Olaparib
From the text: To knock out PARP-1 in WPMY-1 cells, single-guide RNA sequences targeting PARP-1 exon2 were purchased from Synthego and transduced into WPMY-1 cells with recombinant Streptococcus pyogenes Cas9 protein (Truecut Cas9 Protein v2, Thermo), using the Neon Transfection System 1 (Invitrogen) following the manufacturer's protocol and single clones were expanded and screened by protein immunoblotting. To perform AP1-A binding site editing in the SQSTM promoter in WPMY-1 cells, single-guide RNA sequences targeting the human AP1-A binding site (Synthego) was transduced into cells with a Cas9 protein and a single-stranded donor oligonucleotide (ssODN, IDT) using Neon Electroporation System. Single clones were expanded and screened for AP1-A editing by Sanger sequencing. A point mutation to disrupt the API enhancer element in the p62 promoter was introduced by Site Directed Mutagenesis (Stratagene). Knockdown of MCT1, MCT4, FOS, PARP1, PARP2, CD38, ATG5, and SIRT1-7 genes in WPMY-1 cells were achieved by siRNA transfection using Lipofectamine RNAiMAX Transfection Reagent (Invitrogen). Transient overexpression was achieved by transfection using X-tremeGENE HP transfection reagent (Roche). Transfected cells were examined 48 hours after transfection. Establishing stably GFP or RFP expressing cells was achieved by lentivirus-mediated transduction. Lentivirus were produced in HEK293T cells using X-tremeGENE HP transfection reagent (Roche). Virus-containing supernatants were collected 48, 72 and 96 hours after transfection, filtered to eliminate cells, and supplemented with 8 μg/ml polybrene. Cells were infected with three rounds of viral supernatants and selected with puromycin (3 μg/ml). For autophagy or proteasome inhibition, WPMY-1 cells were treated for 12 hours with 100 nM bafilomycin Al or 12 hours with 20 μM of MG132, respectively, or vehicle (DMSO). For PARP1 inhibition, WPMY-1 cells were treated with PJ34 (2 days) or Olaparib (4 days) at the doses indicated in each experiment. For MCT1 inhibition, WPMY-1 cells were treated for 48 hours with 10 μM of AZD3965. For cJUN inhibition, WPMY-1 cells were treated for 48 hours with 10 μM of SP600125. For calpains and caspases inhibition, WPMY-1 cells were treated for 48 hours with 1-20 μM of Calpeptin (Tocris) or z-VAD-FMK (Tocris), respectively. For protein synthesis inhibition, WPMY-1 cells were treated with 50 μg/ml of cycloheximide (Sigma). Conditioned media (CM) was generated by collecting supernatant on day 3. CM was transferred to a 15 ml BD Falcon tube and centrifuged at 1300 rpm for 10 minutes. The supernatant was sterile filtered using a […] (Millex-GV) with a 10 ml syringe barrel. The samples were stored at […] for future experiments. Fractionation of the CM was achieved using Amicon Ultra centrifugal filters (3KUltracel, Millipore). The supernatant was centrifuged at 4000 rpm for 1 hour. The supernatant fraction that was >3 kDa remained above the filter and that which was <3 kDa passed through to the lower chamber. The >3-kDa fraction was resuspended in DMEM to the pre-filtration volume.
Total RNA from mouse tissues, cells and cultured organoids was extracted using the TRIZOL reagent (Invitrogen) and the RNeasy Mini Kit (QIAGEN), followed by DNase treatment. After quantification using a Nanodrop 1000 spectrophotometer (Thermo Scientific), RNA was either processed for RNA-seq or reverse-transcribed using random primers and MultiScribe Reverse Transcriptase (Applied Biosystems). Gene expression was analyzed by amplifying 20 ng of the complementary DNA using the CFX96 Real Time PCR Detection System with SYBR Green Master Mix (BioRad) and primers described in Table S1. The amplification parameters were set at 95° C. for 30 seconds, 58° C. for 30 seconds, and 72° C. for 30 seconds (40 cycles total). Gene expression values for each sample were normalized to the 18s RNA.

[3] = test system: BRCA deficient breast tumors; experiment: GSEA of RNAseq data of BRCA deficient breast tumors (GSE125206)
From the text: as §1

For `Cc1[nH]nc(C(F)(F)F)c1Cc1sc2c(c1C(=O)N1C[C@](C)(O)CO1)c(=O)n(C)c(=O)n2C(C)C` [AZD3965], the “p62 downregulation induced by CM from PC3 cells” value ([1]; WPMY-1 cells, MCT1 inhibitor 10 μM, PC3 CM 48 h) was “impaired p62 downregulation in WPMY-1 cells treated with PC3 CM”.

With `Cc1cccc(-c2nn3c(c2-c2ccnc4ccc(C(N)=O)cc24)CCC3)n1` [Galunisertib] the “Olaparib-induced proliferation (EdU)” value (PC3 cells) was “completely abolished the stromal proliferation induced by Olaparib”.

For `NC(=O)c1ccc[n+]([C@@H]2O[C@H](CO)[C@@H](O)[C@H]2O)c1` [NR, nicotinamide riboside], the “rescue of lactate-induced reduction in p62” value ([1]; lactate-treated WPMY-1 cells, 48 h, NAD 150 μM, NR 200 μM) was “completely rescued the lactate-induced reduction in p62”.

In the case of `NC(=O)c1cccc2cn(-c3ccc([C@@H]4CCCNC4)cc3)nc12` [Niraparib], the “GSEA inflammatory signaling signatures” value [2] was “increased inflammatory related signatures” and the “GSEA signatures of stromal activation” value [2] was “showing stromal activation”.

In the case of `CN(C)CC(=O)Nc1ccc2[nH]c(=O)c3ccccc3c2c1` [PJ34], the “p62 expression (protein, SQSTM1 mRNA)” value ([1]; WPMY-1 cells, PJ34 24 h, Olaparib 48 h) was “reduced the expression of p62 in a dose-dependent manner”.

In the case of `CNC(=O)c1ccccc1Oc1nc(Nc2cc(OC)c(OC)c(OC)c2)ncc1Br` [SBI-0202965], the “Olaparib-induced activation of stroma (qPCR of CAF marker ACTA2)” value (WPMY-1 cells) was “reverted the Olaparib-induced activation of stroma in a dose dependent manner; also recorded: reverts the stroma activation induced by Olaparib”.

For `Cn1ncnc1[C@H]1c2n[nH]c(=O)c3cc(F)cc(c23)N[C@@H]1c1ccc(F)cc1` [Talazoparib], the “GSEA inflammatory signaling signatures” value ([3]; Talazoparib vs saline) was “increased inflammatory related signatures” and the “GSEA signatures of stromal activation” value ([3]; Talazoparib vs vehicle) was “significant enrichment of signatures of stromal activation; also recorded: showing stromal activation”.
